Test results as given in PMC5030704 (Scientific Reports, 2016).

Target: T1, TNIK (Homo sapiens, UniProt Q9UKE5)
T1 construct: kinase domain, DNA-tagged, KINOMEscan commercial panel
Test: KINOMEscan competition binding (immobilised reference ligand, qPCR)
Conditions: read-out: % Ctrl / 10 μM
From the text: KINOMEscan competition binding (immobilised reference ligand, qPCR) on TNIK

T1 sequence (Q9UKE5 25-289 limits assumed): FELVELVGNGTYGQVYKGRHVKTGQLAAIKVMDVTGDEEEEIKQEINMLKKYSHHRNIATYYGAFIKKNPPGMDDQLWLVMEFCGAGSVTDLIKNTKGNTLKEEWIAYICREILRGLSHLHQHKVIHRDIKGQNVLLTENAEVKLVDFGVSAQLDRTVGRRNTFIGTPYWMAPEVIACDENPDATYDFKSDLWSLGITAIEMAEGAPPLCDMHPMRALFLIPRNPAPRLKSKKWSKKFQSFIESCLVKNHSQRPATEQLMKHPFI

remaining binding at 10 µM [%] | Structure (SMILES)
33 | CN1CC[C@H](c2c(O)cc(O)c3c(=O)cc(-c4ccccc4Cl)oc23)[C@H](O)C1 [Flavopiridol]
8.2 | COC(=O)Nc1nc2cc(C(=O)c3ccccc3)ccc2[nH]1 [Mebendazole]
11 | Cc1nc(Nc2ncc(C(=O)Nc3c(C)cccc3Cl)s2)cc(N2CCN(CCO)CC2)n1 [Dasatinib]
